What was measured:
Type in all cases: in vivo
[1] = system: Potato Variety: Toyoshiro; assay: Example 5 drying stress tolerance imparting test (potato variety Toyoshiro); settings: pF 2.3, leaf, 100 ppm once a week, 3 weeks
Method: Other cultivation conditions were the same as the conditions of the drying stress test. Drying stress conditions: soil pF value: 2.3, 2.5, or 2.9, cultivation temperature: 23° C., relative humidity: 50%, illuminance: 5000 Lux (fluorescent light), light/dark cycle: 16 hours/8 hours (2) Cultivation Period: 3 weeks (3) Soil: Kureha gardening soil manufactured by Kureha Corporation (fertilizer components: N:P:K=0.4:1.9:0.6 g/kg soil) (4) The chemicals used and the amount of a treatment solution applied were the same as in Example 3. Method of Drying Stress Tolerance Imparting Test A planter (60 cm) was filled with Kureha gardening soil manufactured by Kureha Corporation (fertilizer components: N:P:K=0.4:1.9:0.6 g/kg soil) in a glass greenhouse, tubers of a “Thyoshiro” potato were cut in half: and 5 pieces thereof were planted in the planter, thinly covered with Kureha gardening soil, and sufficiently watered to allow the tubers to sprout. When the leaves in the 3-leaf stage fully unfolded, the Solarium tuberosu was relocated on a plant culture rack in an air-conditioned room, and a test was initiated. […] From immediately after the beginning of the test, a treatment solution of Table 1 was sprayed onto the leaves or applied to the underground portions once a week. […] Five specimens (per planter) were prepared for each of the test plot and the control plots, plant bodies were collected 3 weeks after the beginning of the test such that the roots were not cut, the soil was washed away with running water, the fresh plant body weights were measured, and a plant stress level and an extent of imparting plant stress tolerance were calculated according to Formula (ii) and (iii) above using the average of the weights.

“Momotaro” tomato [2] = assay: Example 2 temperature stress tolerance imparting test (tomato); settings: 32° C., leaf, 100 ppm, 2 weeks
Method: Other cultivation conditions were the same as the conditions of the temperature stress test. […] (2) Solution culture medium: […] Method of Temperature Stress Tolerance Imparting Test The temperature in a climatic chamber was controlled so as to be 10, 15, or 32° C. The environmental conditions were controlled so as to have an illuminance by a fluorescent light of 5000 Lux and a daily light-dark cycle of a 16-hour light period and a 8-hour dark period. In this test, a temperature of 23° C. at which the optimum growth was observed was regarded as a reference temperature (temperature stress-free test condition), and a stress was imposed by applying a temperature higher or lower than the reference temperature. A tomato as prepared above was planted in a 250 ml polyethylene bottle filled with the solution culture medium (½ Otsuka A formulation). A treatment solution as presented in Table 1 was sprayed onto the leaves or applied to the underground portion. […] Ten specimens were prepared for each of the test plot and the control plots, and a plant stress level and an extent of imparting plant stress tolerance were calculated according to Formula (ii) and (iii) above using as a fresh plant body weight the average of the fresh plant body weights of each specimen 2 weeks after the beginning of the test.

“Momotaro” tomato [3] = assay: Example 4 salt stress tolerance imparting test (tomato, tap water + NaCl); settings: tap water + NaCl 3510 ppm, leaf, 100 ppm, 2 weeks
From the text: NaCl concentration 3510 ppm (water potential by NaCl: […]) (4) Cultivation period: two weeks (5) Plant preparation: A 50-cell tray was filled with Kureha gardening soil manufactured by Kureha Corporation (fertilizer components: N:P:K=0.4:1.9:0.6 g/kg soil), and seeds of a “Momotaro” tomato were sowed, thinly covered with Kureha gardening soil, and sufficiently irrigated to allow the seeds to sprout. When the leaves in the 2-leaf stage fully unfolded, the soil on the tomato roots was carefully washed away with running water, and a test was performed. (6) The chemicals used and the concentration of a treatment solution were as in Example 1 (7) Amount of application: 10 ml/specimen for leaf spraying, 50 ml/specimen for fertigation Method of Salt Stress Tolerance Imparting Test […]

“Momotaro” tomato [4] = assay: Standard test: standard extent of imparting plant salt stress tolerance; settings: 100 ppm sprayed onto leaves 10 ml/specimen, NaCl 3510 ppm in tap water, fresh weight after 2 weeks vs salt-stressed untreated control plot 1
Method: Standard Test (I) Plant Preparation A 50-cell tray is filled with potting soil (fertilizer components: N:P:K=0.4:1.9:0.6 (g)/kg potting soil); and seeds of a “Momotaro” tomato (Takii Co., Ltd.) are sowed, thinly covered with potting soil, and sufficiently irrigated to allow the seeds to sprout. When the leaves in the 2-leaf stage are fully unfolded, the soil on the tomato roots is washed away with running water, and a test is performed. For the potting soil, Kureha gardening soil manufactured by Kureha Corporation may be used. (II) Test Condition Setting The environmental conditions are controlled such that the temperature is 23° C., the relative humidity is 50%, the illuminance is 5000 Lux, and the daily light-dark cycle includes a 16-hour light period and an 8-hour dark period. Such environmental conditions can be obtained by, for example, controlling the temperature in a room or a climate chamber where the temperature and the relative humidity can be controlled, and controlling illuminance by a fluorescent light or the like. […] (III) Treatment with Plant Stress Tolerance Imparting Composition […] A known surfactant or a like material that barely affects the plant may be used in the preparation of an aqueous dispersion. Test plot: An aqueous solution or an aqueous dispersion of a test compound (sugar derivative-type surfactant) (concentration: 100 ppm) is sprayed onto the leaves in an amount of 10 ml per tomato specimen. […] NaCl is added to a solution culture medium (creating a salt stress), but no test compound (plant stress tolerance imparting composition) is given to the tomato. Control plot 2: No NaCl is added to a solution culture medium (creating no salt stress), and no test compound (plant stress tolerance imparting composition) is given to the tomato. (IV) Calculation of Standard Extent of Imparting Plant Salt Stress Tolerance (%) […] The plant stress level (standard plant salt stress level) attained in the above-described standard test is about 130%. In this regard, the standard plant salt stress level can be calculated according to Formula (ii)′ below.

Compound	Extent of imparting plant stress tolerance [1] [%]	Extent of imparting plant stress tolerance (“Momotaro” tomato [2]) [%]	Extent of imparting plant stress tolerance (“Momotaro” tomato [3]) [%]	Standard extent of imparting plant salt stress tolerance (“Momotaro” tomato [4]) [%]
OC[C@H]1O[C@H](OC[C@H]2O[C@H](O[C@]3(CO)O[C@H](CO)[C@@H](O)[C@@H]3O)[C@H](O)[C@@H](O)[C@@H]2O)[C@H](O)[C@@H](O)[C@H]1O [Comparative product 4, Raffinose, reference compound]	103	103	102	102
Alkyl (C12-14) polyglycoside [Product of present invention 16]	121	116	117	117
Sucrose fatty acid ester (C18, HLB = 9) [Product of present invention 18]	115	113	113	113
